Results on 25 compounds are retold here after PubChem BioAssay (NCI).

Assay in all cases: NCI anticancer screen, dose series, 48 h
The test system of assay [1] is SF-295 CNS.
The test system of assay [2] is T-47D breast.
Assay [3] has as its system RPMI-8226 leukemia.
Assay [4] concerns OVCAR-5 ovarian.
The subject of assay [5] is HOP-62 NSCLC.
For assay [6], the system named is A498 renal.
Assay [7] has as its system DU-145 prostate.
Assay [8] has as its system OVCAR-4 ovarian.
Assay [9] concerns HCT-15 colon.
For assay [10], the system named is SK-MEL-2 melanoma.

Molecules are shown by their SMILES. Where “and” joins values, the source holds several entries; their conditions need not be identical. Identical values can stand only once.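 Where inhibition never reached the appropriate level, the endpoint shown equals the highest concentration tested. Otherwise, values were interpolated linearly from a five-concentration, 48-hour dose response in 96-well plates. GI50 is the concentration that inhibits growth by half. TGI denotes the concentration required for complete inhibition of growth.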

Turning to `O=C(CCl)Nc1ccc(C(=O)N/N=C/c2ccc(Cl)cc2)cc1`, the GI50 in assay [1] was 1650 nM; in [2] it was 195 nM; in [3], 9.09 µM; in [4], 1980 nM; in assay [5], 1740 nM; in [6], 13 µM. Besides, the values for the GI50 in [7], in assay [9] and in assay [10] were 13.5 µM, 1480 nM and 2280 nM, respectively. In addition, the TGI is 3.1 µM and 9.23 µM in assay [1]; 6.54 µM and 32.5 µM in [3]; 3.6 µM and 33.1 µM in assay [4]; 3.45 µM and 14.7 µM in [5]; 4.85 µM and 26.7 µM in assay [6]; 8.44 µM and 27 µM in [7]. For the same compound, the TGI is 4.48 µM and 4.43 µM in [8]; 3.74 µM and 9.73 µM in [9]; 4.14 µM and 14.7 µM in [10].

Take `N#Cc1ccnc(C(=O)N2CCCC2C(=O)O)c1` (stereo not drawn): the TGI in assay [1], in assay [2], in [3], in assay [4], in assay [5] and in [6] was over 100 µM in each case. Also, the TGI in assay [7], in assay [8], in assay [9] and in [10] was over 100 µM each time.

With `O=c1[nH]nc(-c2ccc([N+](=O)[O-])cc2)[nH]1`, the TGI in assay [1], in [2], in [3], in assay [4], in assay [5] and in [6] was over 100 µM each time. For the same compound, the TGI in assay [7], in assay [8], in assay [9] and in assay [10] was over 100 µM in each case.

As for `O=C(O)C12C3C4(C(=O)O)C1C1(C(=O)O)C2C3(C(=O)O)C41` (stereo not drawn), the TGI in [1], in assay [2], in assay [3], in assay [4], in assay [5] and in assay [6] was over 100 µM each time. In addition, the TGI in assay [7], in [8], in assay [9] and in assay [10] was over 100 µM each time.

Take `CC(C)(C)C#CI1OC(=O)c2ccccc21`: the TGI in assay [1] worked out at 28.2 µM; in assay [2], 14.7 µM; in [3] it was 5.11 µM; in [4] it was 21.9 µM; in assay [5], 27.2 µM; in assay [6] it was 24 µM. For the same compound, the TGI in assay [7] stood at 17.8 µM; in assay [8] it was 8.08 µM; in [9] it was 11.6 µM; in [10], 27 µM.

For `Cn1c2ccccc2c2c3c(=O)[nH][nH]c(=O)c3c3c4ccccc4n(C)c3c21`, the TGI in assay [1], in [2], in assay [3], in assay [4], in assay [5] and in assay [6] was over 100 µM throughout. For the same compound, the TGI in assay [7], in assay [8], in [9] and in assay [10] was over 100 µM in each case.

Take `CC(C)(C)[Si](C)(C)OC1CCOC1(O)c1ccccn1` (stereo not drawn): the TGI in assay [1], in assay [2], in assay [3], in assay [4], in assay [5] and in assay [6] was over 100 µM each time. For the same compound, the TGI in [7], in assay [8], in assay [9] and in assay [10] was over 100 µM each time.

`COC(=O)Cc1c2n(c3ccccc13)C(=O)N1c3ccccc3C(CC(=O)OC)C21` (stereo not drawn): the TGI in [1] was 68.2 µM; in assay [2], over 100 µM; in assay [3], over 100 µM; in [4], over 100 µM; in assay [5], 38.5 µM; in [6] it was over 100 µM. Besides, the TGI in assay [7] was over 100 µM; in [8], 57.1 µM; in assay [9], over 100 µM; in assay [10] it was over 100 µM.

For `O=C1c2c(Br)sc(Br)c2[C@H]2OC(=S)N[C@@H]12`, the TGI in assay [1] is 30.1 µM; in assay [2], 44.2 µM; in assay [3], 40.3 µM; in assay [4] it was 32.4 µM; in assay [5] it was 30.7 µM; in assay [6] it was 32.5 µM. Besides, the TGI in assay [7] was found to be 26.9 µM; in assay [8], 13.3 µM; in [9], 3.76 µM; in assay [10] it was 29 µM.

Regarding `Cc1ccc2nc(Nc3ccccc3C)c(Nc3ccccc3C)nc2c1`, the TGI in assay [1] is 52.3 µM; in assay [2], over 100 µM; in [3], over 100 µM; in [4] it was 47.5 µM; in [5] it was over 100 µM; in assay [6], 69.6 µM. Besides, the TGI is over 100 µM in assay [7], over 100 µM in assay [8], 58.7 µM in assay [9] and 31.7 µM in [10].

With `O=C(O)CCSc1ncnc2nc[nH]c12`, the TGI in assay [1], in assay [2], in assay [3], in assay [4], in assay [5] and in assay [6] was over 100 µM each time. Besides, the TGI in [7], in [8], in assay [9] and in assay [10] was over 100 µM throughout.

Consider `CC(Br)CN(CC(C)Br)c1ccc2c(c1)Cc1ccccc1-2` (stereo not drawn), for which the TGI in [1] worked out at 22.6 µM; in [2], 29.6 µM; in assay [3], 71.8 µM; in assay [4] it was 34.9 µM; in [5] it was 23.9 µM; in [6] it was 26 µM. Besides, the TGI in [7] came to 23 µM; in assay [8], 25.9 µM; in assay [9] it was 27.7 µM; in assay [10] it was 29.6 µM.

Regarding `CCCCCc1cc(CCCC)sc1-c1ccco1`, the TGI in assay [1], in [2], in [3], in assay [4], in assay [5] and in assay [6] was over 100 µM each time. Moreover, the TGI in assay [7], in [8], in assay [9] and in [10] was over 100 µM each time.

On to `C[N+]1(CCCCN2c3ccccc3Sc3cc(N=[N+]=[N-])ccc32)CCN(C(=O)CCNC(=O)Cc2ccc(C(=O)c3ccccc3)cc2)CC1`, for which the TGI in assay [1] was 45.5 µM; in assay [2], over 76.4 µM; in assay [3] it was 61.4 µM; in assay [4] it was 56.1 µM; in assay [5], 44.9 µM; in [6] it was 56.3 µM. In addition, the TGI in assay [7] was 35.1 µM; in [8], 48.8 µM; in assay [9], 55.9 µM; in assay [10], over 79.4 µM.

For `COc1cc2c3cc1Oc1cc(ccc1O)C[C@@H]1c4c(cc(OC)c(O)c4Oc4ccc(cc4)C[C@@H]3[N+](C)(C)CC2)CC[N+]1(C)C`, the TGI in assay [1] is 50.5 µM; in assay [2] it was 71.2 µM; in [3] it was over 100 µM; in assay [4], over 100 µM; in assay [5], over 100 µM; in assay [6], over 100 µM. Further, the TGI in assay [7], in assay [8], in assay [9] and in assay [10] was over 100 µM each time.

As for `O=C1c2cccnc2C(=O)c2c1nc1ccccc1c2-c1ccc2c3c(nc4ccccc42)C(=O)c2cccnc2-c13`, the TGI in [1] came out at 7.68 µM; in [2], 19.4 µM; in assay [3], 7.14 µM; in [4], 33.6 µM; in assay [5] it was 22.9 µM; in assay [6] it was 6.05 µM. In addition, the TGI was 1.34 µM in assay [7], 14 µM in assay [8], 1.76 µM in assay [9] and 14.1 µM in [10].

As for `COc1ccc2c(c1)-c1nc(=S)n(CCN(C)C)c3ccc([N+](=O)[O-])c(c13)N2`, the TGI was determined as 18.3 µM in assay [1]; 12.5 µM in assay [2]; 2.76 µM in assay [3]; 8.04 µM in [4]; 2.24 µM in assay [5]; 24.5 µM in assay [6]. Besides, the TGI stood at 2.93 µM in assay [7], 13.3 µM in assay [8], 4.76 µM in [9] and 24.3 µM in assay [10].

Turning to `OC(CCN1CCN(CCOC(c2ccc(F)cc2)c2ccc(F)cc2)CC1)c1ccc(Br)cc1` (stereo not drawn), the TGI is 9.73 µM in assay [1]; 13.7 µM in assay [2]; 6.93 µM in assay [3]; 29.4 µM in [4]; 14.5 µM in assay [5]; 8.04 µM in assay [6]. For the same compound, the TGI came out at 17.4 µM in [7], 13.9 µM in assay [8], 8.25 µM in assay [9] and 18.8 µM in assay [10].

`Fc1ccc(OCc2ccc3nc(-c4ccccc4)c(Cl)nc3c2)cc1`: the TGI is 50.3 µM in assay [1]; over 100 µM in assay [2]; over 100 µM in [3]; over 100 µM in [4]; 31.3 µM in assay [5]; 50.1 µM in assay [6]. Moreover, the TGI in assay [7], in assay [8], in assay [9] and in assay [10] was over 100 µM each time.

On to `CCOC(=O)OC1(c2ccccc2)CCN(C)CC1`, for which the TGI in assay [1], in assay [2], in assay [3], in assay [4], in [5] and in [6] was over 100 µM each time. For the same compound, the TGI in assay [7], in [8], in [9] and in [10] was over 100 µM in each case.

As for `Cc1nn(C(=O)c2ccccc2O)c2c1C(c1ccc([N+](=O)[O-])cc1)SC(N)=N2` (stereo not drawn), the TGI in assay [1], in [2], in assay [3], in assay [4], in assay [5] and in assay [6] was over 10 µM throughout. For the same compound, the TGI in [7], in assay [8], in assay [9] and in [10] was over 10 µM each time.

Regarding `C=CCN(c1cc(OC)c2[nH]c(C(=O)O)c(C)c2c1[N+](=O)[O-])S(C)(=O)=O`, the TGI in assay [1], in assay [2], in [3], in assay [4], in assay [5] and in assay [6] was over 100 µM each time. Also, the TGI in assay [7], in assay [8], in [9] and in assay [10] was over 100 µM each time.

Consider `COC(=O)c1ccc2cc(O)ccc2c1`, for which the TGI in assay [1], in assay [2], in assay [3], in assay [4], in assay [5] and in [6] was over 100 µM throughout. The TGI in assay [7], in assay [8], in assay [9] and in [10] was over 100 µM in each case.

With `C=C1C[C@@H]2CC[C@@]34CC5O[C@H]6C(O[C@H]7CC[C@H](CC(=O)O[C@@H]8[C@@H](C)[C@@H]9O[C@@H]%10C[C@]%11(C[C@@H]%12O[C@]%13(C[C@H](C)[C@@H]%14O[C@@H]%15CC(C(COC(C)=O)OC(C)=O)O[C@@H]%15C[C@@H]%14O%13)C[C@H](C)[C@@H]%12O%11)O[C@@H]%10C[C@@H]9O[C@H]8CC8O[C@@H](CC[C@@H]1O2)C[C@@H](C)C8(O)CO)O[C@@H]7[C@@H]6O3)[C@H]5O4` (stereo partly drawn), the TGI was over 1 µM in [1]; over 0.924 µM in [2]; over 1 µM in assay [3]; over 1 µM in assay [4]; over 1 µM in [5]; over 1 µM in assay [6]. Moreover, the TGI in assay [7], in [8], in assay [9] and in [10] was over 1 µM throughout.

For the compound `COc1ccc(C(=C2C(=O)OC(=O)C2=C(C)C)c2ccc(OC)cc2)cc1`, the TGI in assay [1], in [2], in assay [3], in assay [4], in [5] and in assay [6] was over 100 µM each time. For the same compound, the TGI in assay [7] was over 100 µM; in assay [8] it was 92.5 µM; in assay [9] it was over 100 µM; in assay [10] it was over 100 µM.
